# According to ChEMBL document CHEMBL3751693, “Synthesis, antimicrobial evaluation and molecular modeling of 5-hydroxyisoquinolinium salt series; the effect of the hydroxyl moiety” (Bioorg Med Chem, 2016):
# Test system: Staphylococcus aureus
# Assay: Antimicrobial activity against clinical isolate Staphylococcus aureus CCM 451608 after 24 hrs
# Type: functional
# Details: CCM 451608, 24 h
row,Compound,MIC
1,CCCCCCCCCCCCCC[n+]1ccc2c(O)cccc2c1,0.5 µM
2,CCCCCCCCCC[n+]1ccc2ccccc2c1,16 µM
3,CCCCCCCCCCCCCCCC[n+]1ccc2c(O)cccc2c1,0.5 µM

# Test system: Staphylococcus aureus
# Assay: Antimicrobial activity against clinical isolate Staphylococcus aureus CCM 451608 after 48 hrs
# Type: functional
# Details: CCM 451608, 48 h
Compound,MBC,MIC
CCCCCCCCCCCCCC[n+]1ccc2c(O)cccc2c1,1 µM,0.5 µM
CCCCCCCCCC[n+]1ccc2ccccc2c1,31 µM,16 µM
CCCCCCCCCCCCCCCC[n+]1ccc2c(O)cccc2c1,0.5 µM,0.5 µM

# Test system: Staphylococcus aureus
# Assay: Antimicrobial activity against clinical isolate methicillin-resistant Staphylococcus aureus H 599608 after 24 hrs
# Type: functional
# Details: H 599608, 24 h
row,Compound,MIC
1,CCCCCCCCCCCCCC[n+]1ccc2c(O)cccc2c1,2 µM
2,CCCCCCCCCC[n+]1ccc2ccccc2c1,31 µM
3,CCCCCCCCCCCCCCCC[n+]1ccc2c(O)cccc2c1,0.5 µM

# Test system: Staphylococcus aureus
# Assay: Antimicrobial activity against clinical isolate methicillin-resistant Staphylococcus aureus H 599608 after 48 hrs
# Type: functional
# Details: H 599608, 48 h
Compound,MBC,MIC
CCCCCCCCCCCCCC[n+]1ccc2c(O)cccc2c1,2 µM,2 µM
CCCCCCCCCC[n+]1ccc2ccccc2c1,125 µM,31 µM
CCCCCCCCCCCCCCCC[n+]1ccc2c(O)cccc2c1,0.5 µM,0.5 µM

# Test system: Staphylococcus epidermidis
# Assay: Antimicrobial activity against clinical isolate Staphylococcus epidermidis H 696608 after 24 hrs
# Type: functional
# Details: H 696608, 24 h
row,Compound,MIC
1,CCCCCCCCCCCCCC[n+]1ccc2c(O)cccc2c1,3.9 µM
2,CCCCCCCCCC[n+]1ccc2ccccc2c1,2 µM
3,CCCCCCCCCCCCCCCC[n+]1ccc2c(O)cccc2c1,63 µM

# Test system: Staphylococcus epidermidis
# Assay: Antimicrobial activity against clinical isolate Staphylococcus epidermidis H 696608 after 48 hrs
# Type: functional
# Details: H 696608, 48 h
Compound,MBC,MIC
CCCCCCCCCCCCCC[n+]1ccc2c(O)cccc2c1,7.8 µM,3.9 µM
CCCCCCCCCC[n+]1ccc2ccccc2c1,16 µM,2 µM
CCCCCCCCCCCCCCCC[n+]1ccc2c(O)cccc2c1,63 µM,63 µM

# Test system: Enterococcus sp.
# Assay: Antimicrobial activity against clinical isolate Enterococcus sp. J 1436508 after 24 hrs
# Type: functional
# Details: J 1436508, 24 h
row,Compound,MIC
1,CCCCCCCCCCCCCC[n+]1ccc2c(O)cccc2c1,63 µM
2,CCCCCCCCCC[n+]1ccc2ccccc2c1,63 µM
3,CCCCCCCCCCCCCCCC[n+]1ccc2c(O)cccc2c1,63 µM

# Test system: Enterococcus sp.
# Assay: Antimicrobial activity against clinical isolate Enterococcus sp. J 1436508 after 48 hrs
# Type: functional
# Details: J 1436508, 48 h
Compound,MBC,MIC
CCCCCCCCCCCCCC[n+]1ccc2c(O)cccc2c1,63 µM,63 µM
CCCCCCCCCC[n+]1ccc2ccccc2c1,125 µM,63 µM
CCCCCCCCCCCCCCCC[n+]1ccc2c(O)cccc2c1,63 µM,63 µM

# Test system: Escherichia coli
# Assay: Antimicrobial activity against clinical isolate Escherichia coli CCM 4517 after 24 hrs
# Type: functional
# Details: CCM 4517, 24 h
row,Compound,MIC
1,CCCCCCCCCCCCCC[n+]1ccc2c(O)cccc2c1,> 500 µM
2,CCCCCCCCCC[n+]1ccc2ccccc2c1,63 µM
3,CCCCCCCCCCCCCCCC[n+]1ccc2c(O)cccc2c1,> 500 µM

# Test system: Escherichia coli
# Assay: Antimicrobial activity against clinical isolate Escherichia coli CCM 4517 after 48 hrs
# Type: functional
# Details: CCM 4517, 48 h
Compound,MBC,MIC
CCCCCCCCCCCCCC[n+]1ccc2c(O)cccc2c1,> 500 µM,> 500 µM
CCCCCCCCCC[n+]1ccc2ccccc2c1,125 µM,63 µM
CCCCCCCCCCCCCCCC[n+]1ccc2c(O)cccc2c1,> 500 µM,> 500 µM

# Test system: Klebsiella pneumoniae
# Assay: Antimicrobial activity against clinical isolate Klebsiella pneumoniae D 1175008 after 24 hrs
# Type: functional
# Details: D 1175008, 24 h
row,Compound,MIC
1,CCCCCCCCCCCCCC[n+]1ccc2c(O)cccc2c1,> 500 µM
2,CCCCCCCCCC[n+]1ccc2ccccc2c1,63 µM
3,CCCCCCCCCCCCCCCC[n+]1ccc2c(O)cccc2c1,> 500 µM

# Test system: Klebsiella pneumoniae
# Assay: Antimicrobial activity against clinical isolate Klebsiella pneumoniae D 1175008 after 48 hrs
# Type: functional
# Details: D 1175008, 48 h
Compound,MBC,MIC
CCCCCCCCCCCCCC[n+]1ccc2c(O)cccc2c1,> 500 µM,> 500 µM
CCCCCCCCCC[n+]1ccc2ccccc2c1,125 µM,63 µM
CCCCCCCCCCCCCCCC[n+]1ccc2c(O)cccc2c1,> 500 µM,> 500 µM

# Test system: Klebsiella pneumoniae
# Assay: Antimicrobial activity against clinical isolate ESBL-Klebsiella pneumoniae J 1436808 after 24 hrs
# Type: functional
# Details: J 1436808, 24 h
row,Compound,MIC
1,CCCCCCCCCCCCCC[n+]1ccc2c(O)cccc2c1,> 500 µM
2,CCCCCCCCCC[n+]1ccc2ccccc2c1,250 µM
3,CCCCCCCCCCCCCCCC[n+]1ccc2c(O)cccc2c1,> 500 µM

# Test system: Klebsiella pneumoniae
# Assay: Antimicrobial activity against clinical isolate ESBL-Klebsiella pneumoniae J 1436808 after 48 hrs
# Type: functional
# Details: J 1436808, 48 h
Compound,MBC,MIC
CCCCCCCCCCCCCC[n+]1ccc2c(O)cccc2c1,> 500 µM,500 µM
CCCCCCCCCC[n+]1ccc2ccccc2c1,500 µM,250 µM
CCCCCCCCCCCCCCCC[n+]1ccc2c(O)cccc2c1,> 500 µM,500 µM

# Test system: Pseudomonas aeruginosa
# Assay: Antimicrobial activity against clinical isolate Pseudomonas aeruginosa CCM 1961 after 72 hrs
# Type: functional
# Details: CCM 1961, 72 h
row,Compound,MIC
1,CCCCCCCCCCCCCC[n+]1ccc2c(O)cccc2c1,> 500 µM
2,CCCCCCCCCC[n+]1ccc2ccccc2c1,> 500 µM
3,CCCCCCCCCCCCCCCC[n+]1ccc2c(O)cccc2c1,> 500 µM

# Test system: Pseudomonas aeruginosa
# Assay: Antimicrobial activity against clinical isolate Pseudomonas aeruginosa CCM 1961 after 120 hrs
# Type: functional
# Details: CCM 1961, 120 h
Compound,MBC,MIC
CCCCCCCCCCCCCC[n+]1ccc2c(O)cccc2c1,> 500 µM,> 500 µM
CCCCCCCCCC[n+]1ccc2ccccc2c1,> 500 µM,> 500 µM
CCCCCCCCCCCCCCCC[n+]1ccc2c(O)cccc2c1,> 500 µM,> 500 µM

# Test system: Candida albicans
# Assay: Antimicrobial activity against Candida albicans ATCC 44859 after 24 hrs by spectrophotometry
# Type: functional
# Details: ATCC 44859, 24 h
row,Compound,MIC
1,CCCCCCCCCCCCCC[n+]1ccc2c(O)cccc2c1,63 µM
2,CCCCCCCCCC[n+]1ccc2ccccc2c1,16 µM
3,CCCCCCCCCCCCCCCC[n+]1ccc2c(O)cccc2c1,16 µM

# Test system: Aspergillus fumigatus
# Assay: Antimicrobial activity against Aspergillus fumigatus 231 after 24 hrs by spectrophotometry
# Type: functional
# Details: Aspergillus fumigatus, 231, 24 h
row,Compound,MIC
1,CCCCCCCCCCCCCC[n+]1ccc2c(O)cccc2c1,31 µM
2,CCCCCCCCCC[n+]1ccc2ccccc2c1,500 µM
3,CCCCCCCCCCCCCCCC[n+]1ccc2c(O)cccc2c1,> 500 µM

# Test system: Candida albicans
# Assay: Antimicrobial activity against Candida albicans ATCC 44859 after 48 hrs by spectrophotometry
# Type: functional
# Details: ATCC 44859, 48 h
Compound,MFC,MIC
CCCCCCCCCCCCCC[n+]1ccc2c(O)cccc2c1,63 µM,63 µM
CCCCCCCCCC[n+]1ccc2ccccc2c1,63 µM,16 µM
CCCCCCCCCCCCCCCC[n+]1ccc2c(O)cccc2c1,125 µM,16 µM

# Test system: Candida tropicalis
# Assay: Antimicrobial activity against Candida tropicalis 156 after 24 hrs by spectrophotometry
# Type: functional
# Details: Candida tropicalis, 156, 24 h
row,Compound,MIC
1,CCCCCCCCCCCCCC[n+]1ccc2c(O)cccc2c1,7.8 µM
2,CCCCCCCCCC[n+]1ccc2ccccc2c1,3.9 µM
3,CCCCCCCCCCCCCCCC[n+]1ccc2c(O)cccc2c1,7.8 µM

# Test system: Candida tropicalis
# Assay: Antimicrobial activity against Candida tropicalis 156 after 48 hrs by spectrophotometry
# Type: functional
# Details: Candida tropicalis, 156, 48 h
Compound,MFC,MIC
CCCCCCCCCCCCCC[n+]1ccc2c(O)cccc2c1,7.8 µM,7.8 µM
CCCCCCCCCC[n+]1ccc2ccccc2c1,7.8 µM,3.8 µM
CCCCCCCCCCCCCCCC[n+]1ccc2c(O)cccc2c1,7.8 µM,7.8 µM

# Test system: Pichia kudriavzevii
# Assay: Antimicrobial activity against Candida krusei E28 after 24 hrs by spectrophotometry
# Type: functional
# Details: E28, 24 h
row,Compound,MIC
1,CCCCCCCCCCCCCC[n+]1ccc2c(O)cccc2c1,3.9 µM
2,CCCCCCCCCC[n+]1ccc2ccccc2c1,0.5 µM
3,CCCCCCCCCCCCCCCC[n+]1ccc2c(O)cccc2c1,7.8 µM

# Test system: Pichia kudriavzevii
# Assay: Antimicrobial activity against Candida krusei E28 after 48 hrs by spectrophotometry
# Type: functional
# Details: E28, 48 h
Compound,MFC,MIC
CCCCCCCCCCCCCC[n+]1ccc2c(O)cccc2c1,3.9 µM,3.9 µM
CCCCCCCCCC[n+]1ccc2ccccc2c1,2 µM,0.5 µM
CCCCCCCCCCCCCCCC[n+]1ccc2c(O)cccc2c1,7.8 µM,7.8 µM

# Test system: Nakaseomyces glabratus
# Assay: Antimicrobial activity against Candida glabrata 20/I after 24 hrs by spectrophotometry
# Type: functional
# Details: not given
row,Compound,MIC
1,CCCCCCCCCCCCCC[n+]1ccc2c(O)cccc2c1,3.9 µM
2,CCCCCCCCCC[n+]1ccc2ccccc2c1,7.8 µM
3,CCCCCCCCCCCCCCCC[n+]1ccc2c(O)cccc2c1,3.9 µM

# Test system: Nakaseomyces glabratus
# Assay: Antimicrobial activity against Candida glabrata 20/I after 48 hrs by spectrophotometry
# Type: functional
# Details: not given
Compound,MFC,MIC
CCCCCCCCCCCCCC[n+]1ccc2c(O)cccc2c1,7.8 µM,3.9 µM
CCCCCCCCCC[n+]1ccc2ccccc2c1,31 µM,7.8 µM
CCCCCCCCCCCCCCCC[n+]1ccc2c(O)cccc2c1,3.9 µM,3.9 µM

# Test system: Trichosporon asahii
# Assay: Antimicrobial activity against Trichosporon asahii 1188 after 24 hrs by spectrophotometry
# Type: functional
# Details: Trichosporon asahii, 1188, 24 h
row,Compound,MIC
1,CCCCCCCCCCCCCC[n+]1ccc2c(O)cccc2c1,7.8 µM
2,CCCCCCCCCC[n+]1ccc2ccccc2c1,250 µM
3,CCCCCCCCCCCCCCCC[n+]1ccc2c(O)cccc2c1,63 µM

# Test system: Trichosporon asahii
# Assay: Antimicrobial activity against Trichosporon asahii 1188 after 48 hrs by spectrophotometry
# Type: functional
# Details: Trichosporon asahii, 1188, 48 h
Compound,MFC,MIC
CCCCCCCCCCCCCC[n+]1ccc2c(O)cccc2c1,7.8 µM,7.8 µM
CCCCCCCCCC[n+]1ccc2ccccc2c1,250 µM,250 µM
CCCCCCCCCCCCCCCC[n+]1ccc2c(O)cccc2c1,125 µM,63 µM

# Test system: Aspergillus fumigatus
# Assay: Antimicrobial activity against Aspergillus fumigatus 231 after 48 hrs by spectrophotometry
# Type: functional
# Details: Aspergillus fumigatus, 231, 48 h
Compound,MFC,MIC
CCCCCCCCCCCCCC[n+]1ccc2c(O)cccc2c1,125 µM,31 µM
CCCCCCCCCC[n+]1ccc2ccccc2c1,> 500 µM,500 µM
CCCCCCCCCCCCCCCC[n+]1ccc2c(O)cccc2c1,> 500 µM,> 500 µM

# Test system: Lichtheimia corymbifera
# Assay: Antimicrobial activity against Absidia corymbifera 272 after 24 hrs by spectrophotometry
# Type: functional
# Details: Lichtheimia corymbifera, 272, 24 h
row,Compound,MIC
1,CCCCCCCCCCCCCC[n+]1ccc2c(O)cccc2c1,63 µM
2,CCCCCCCCCC[n+]1ccc2ccccc2c1,> 500 µM
3,CCCCCCCCCCCCCCCC[n+]1ccc2c(O)cccc2c1,> 500 µM

# Test system: Lichtheimia corymbifera
# Assay: Antimicrobial activity against Absidia corymbifera 272 after 48 hrs by spectrophotometry
# Type: functional
# Details: Lichtheimia corymbifera, 272, 48 h
Compound,MFC,MIC
CCCCCCCCCCCCCC[n+]1ccc2c(O)cccc2c1,125 µM,63 µM
CCCCCCCCCC[n+]1ccc2ccccc2c1,> 500 µM,> 500 µM
CCCCCCCCCCCCCCCC[n+]1ccc2c(O)cccc2c1,> 500 µM,> 500 µM

# Test system: Trichophyton mentagrophytes
# Assay: Antimicrobial activity against Trichophyton mentagrophytes 445 after 72 hrs by spectrophotometry
# Type: functional
# Details: Trichophyton mentagrophytes, 445, 72 h
row,Compound,MIC
1,CCCCCCCCCCCCCC[n+]1ccc2c(O)cccc2c1,16 µM
2,CCCCCCCCCC[n+]1ccc2ccccc2c1,63 µM
3,CCCCCCCCCCCCCCCC[n+]1ccc2c(O)cccc2c1,16 µM

# Test system: Trichophyton mentagrophytes
# Assay: Antimicrobial activity against Trichophyton mentagrophytes 445 after 120 hrs by spectrophotometry
# Type: functional
# Details: Trichophyton mentagrophytes, 445, 120 h
Compound,MFC,MIC
CCCCCCCCCCCCCC[n+]1ccc2c(O)cccc2c1,31 µM,16 µM
CCCCCCCCCC[n+]1ccc2ccccc2c1,125 µM,63 µM
CCCCCCCCCCCCCCCC[n+]1ccc2c(O)cccc2c1,125 µM,16 µM

# Test system: not listed separately
# Assay: Cytotoxicity against CHOK1 cells after 24 hrs by MTT assay
# Type: cell-based
# Details: Cricetulus griseus, CHO-K1, 24 h
row,Compound,IC50
1,CCCCCCCCCCCCCC[n+]1ccc2c(O)cccc2c1,24 µM
2,CCCCCCCCCC[n+]1ccc2ccccc2c1,41 µM
3,CCCCCCCCCCCCCCCC[n+]1ccc2c(O)cccc2c1,16 µM
